Assay results taken from patent US20240197635A1, “DISSOCIATING POLYMER MATRIX COMPOSITIONS OF FULVESTRANT AND METHODS OF THEIR MAKING AND USE” (VeraMorph LLC, priority 2021, published 2024).

Assay: In vitro dissolution of fulvestrant-loaded DPODs in simulated gastric fluid
Details: aqueous dissolution media
Procedure: The exact time of release can vary from 5 minutes to 120 minutes, with the capability to dissolve in less than 60 minutes and in less than 30 minutes and in less than 20 minutes depending on the exact pH. These parameters can be controlled by modifying the extent of drug loading and the composition of the DPOD.

- saturation concentration of fulvestrant: 2 µg/mL
Compound: C[C@]12CC[C@@H]3c4ccc(O)cc4C[C@@H](CCCCCCCCC[S+]([O-])CCCC(F)(F)C(F)(F)F)[C@H]3[C@@H]1CC[C@@H]2O (stereo partly drawn) [fulvestrant, 7α-[9-[(4,4,5,5,5-Pentafluoropentyl)-sulfinyl]nonyl]estra-1,3,5(10)-triene-3,17β-diol]
